Measured values published in PubChem BioAssay AID1259407 (Chemical Carcinogenesis Research Information System (CCRIS), 2018).
Active and inactive are the calls of the source. How the calls were made is not given here.

System: CCRIS mutagenicity, Ames/micronucleus/aberration tests
Assay: CCRIS mutagenicity studies

NCC(=O)O
mutagenic call (Test System: AMES SALMONELLA TYPHIMURIUM, Strain/Indicator: TA97, Metabolic Activation: NONE, Method: PREINCUBATION): inactive; negative | mutagenic call (Test System: AMES SALMONELLA TYPHIMURIUM, Strain/Indicator: TA97, Metabolic Activation: RAT, LIVER, S-9, AROCLOR 1254, Method: PREINCUBATION): inactive; negative | mutagenic call (Test System: AMES SALMONELLA TYPHIMURIUM, Strain/Indicator: TA98, Metabolic Activation: HAMSTER, LIVER, S-9, AROCLOR 1254, Method: PREINCUBATION): inactive; negative | mutagenic call (Test System: AMES SALMONELLA TYPHIMURIUM, Strain/Indicator: TA98, Metabolic Activation: NONE, Method: PREINCUBATION): inactive; negative | mutagenic call (Test System: AMES SALMONELLA TYPHIMURIUM, Strain/Indicator: TA98, Metabolic Activation: NONE, Method: STANDARD PLATE): inactive; negative | mutagenic call (Test System: AMES SALMONELLA TYPHIMURIUM, Strain/Indicator: TA98, Metabolic Activation: RAT, LIVER, S-9, AROCLOR 1254, Method: PREINCUBATION): inactive; negative | mutagenic call (Test System: AMES SALMONELLA TYPHIMURIUM, Strain/Indicator: TA98, Metabolic Activation: RAT, LIVER, S-9, AROCLOR 1254, Method: STANDARD PLATE): inactive; negative | mutagenic call (Test System: AMES SALMONELLA TYPHIMURIUM, Strain/Indicator: TA100, Metabolic Activation: HAMSTER, LIVER, S-9, AROCLOR 1254, Method: PREINCUBATION): inactive; negative | mutagenic call (Test System: AMES SALMONELLA TYPHIMURIUM, Strain/Indicator: TA100, Metabolic Activation: NONE, Method: PREINCUBATION): inactive; negative | mutagenic call (Test System: AMES SALMONELLA TYPHIMURIUM, Strain/Indicator: TA100, Metabolic Activation: NONE, Method: STANDARD PLATE): inactive; negative | mutagenic call (Test System: AMES SALMONELLA TYPHIMURIUM, Strain/Indicator: TA100, Metabolic Activation: RAT, LIVER, S-9, AROCLOR 1254, Method: PREINCUBATION): inactive; negative | mutagenic call (Test System: AMES SALMONELLA TYPHIMURIUM, Strain/Indicator: TA100, Metabolic Activation: RAT, LIVER, S-9, AROCLOR 1254, Method: STANDARD PLATE): inactive; negative | mutagenic call (Test System: AMES SALMONELLA TYPHIMURIUM, Strain/Indicator: TA102, Metabolic Activation: NONE, Method: PREINCUBATION): inactive; negative | mutagenic call (Test System: AMES SALMONELLA TYPHIMURIUM, Strain/Indicator: TA102, Metabolic Activation: RAT, LIVER, S-9, AROCLOR 1254, Method: PREINCUBATION): inactive; negative | mutagenic call (Test System: AMES SALMONELLA TYPHIMURIUM, Strain/Indicator: TA1535, Metabolic Activation: HAMSTER, LIVER, S-9, AROCLOR 1254, Method: PREINCUBATION): inactive; negative | mutagenic call (Test System: AMES SALMONELLA TYPHIMURIUM, Strain/Indicator: TA1535, Metabolic Activation: NONE, Method: PREINCUBATION): inactive; negative | mutagenic call (Test System: AMES SALMONELLA TYPHIMURIUM, Strain/Indicator: TA1535, Metabolic Activation: NONE, Method: STANDARD PLATE): inactive; negative | mutagenic call (Test System: AMES SALMONELLA TYPHIMURIUM, Strain/Indicator: TA1535, Metabolic Activation: RAT, LIVER, S-9, AROCLOR 1254, Method: PREINCUBATION): inactive; negative | mutagenic call (Test System: AMES SALMONELLA TYPHIMURIUM, Strain/Indicator: TA1535, Metabolic Activation: RAT, LIVER, S-9, AROCLOR 1254, Method: STANDARD PLATE): inactive; negative | mutagenic call (Test System: AMES SALMONELLA TYPHIMURIUM, Strain/Indicator: TA1537, Metabolic Activation: HAMSTER, LIVER, S-9, AROCLOR 1254, Method: PREINCUBATION): inactive; negative | mutagenic call (Test System: AMES SALMONELLA TYPHIMURIUM, Strain/Indicator: TA1537, Metabolic Activation: NONE, Method: PREINCUBATION): inactive; negative | mutagenic call (Test System: AMES SALMONELLA TYPHIMURIUM, Strain/Indicator: TA1537, Metabolic Activation: NONE, Method: STANDARD PLATE): inactive; negative | mutagenic call (Test System: AMES SALMONELLA TYPHIMURIUM, Strain/Indicator: TA1537, Metabolic Activation: RAT, LIVER, S-9, AROCLOR 1254, Method: PREINCUBATION): inactive; negative | mutagenic call (Test System: AMES SALMONELLA TYPHIMURIUM, Strain/Indicator: TA1537, Metabolic Activation: RAT, LIVER, S-9, AROCLOR 1254, Method: STANDARD PLATE): inactive; negative | mutagenic call (Test System: AMES SALMONELLA TYPHIMURIUM, Strain/Indicator: TA1538, Metabolic Activation: NONE, Method: STANDARD PLATE): inactive; negative | mutagenic call (Test System: AMES SALMONELLA TYPHIMURIUM, Strain/Indicator: TA1538, Metabolic Activation: RAT, LIVER, S-9, AROCLOR 1254, Method: STANDARD PLATE): inactive; negative | mutagenic call (Test System: MOUSE LYMPHOMA, Strain/Indicator: L5178Y (TK+/TK-), Metabolic Activation: NONE): inactive; negative | mutagenic call (Test System: MOUSE LYMPHOMA, Strain/Indicator: L5178Y (TK+/TK-), Metabolic Activation: RAT, LIVER, S-9, AROCLOR 1254): inactive; negative | mutagenic call (Test System: MOUSE LYMPHOMA, Strain/Indicator: L5178Y (TK+/TK-), Metabolic Activation: RAT, LIVER, S-9, AROCLOR 1254, Method: SUSPENSION/PLATE): inactive; negative. reevaluation of results: inconclusive | mutagenic call (Test System: Mouse lymphoma, Strain/Indicator: L5178Y (tk+/tk-), Metabolic Activation: None, Method: Suspension/plate): active; inconclusive (previous evaluation positive) | mutagenic call (Test System: UDS RAT PRIMARY HEPATOCYTES, Metabolic Activation: NONE): inactive; negative
